Reference: publication PMC5218480 (PLoS ONE, 2017)

System: MV-4-11 cells
Assay: Gene expression microarray analysis (Affymetrix PrimeView) and GSEA
Assay type: cell-based, human
Set-up: RFU PODN (11730768_x_at) / Fold change /veh PODN (11730768_x_at) / RFU LINC00158 (11744669_a_at) / Fold change /veh LINC00158 (11744669_a_at) / RFU DUSP10 (11751237_a_at) / Fold change /veh DUSP10 (11751237_a_at) / RFU ID3 (11757404_x_at) / Fold change /veh ID3 (11757404_x_at) / RFU PLEKHG5 (11737974_s_at) / Fold change /veh PLEKHG5 (11737974_s_at) / RFU LRRC4B (11730491_at) / Fold change /veh LRRC4B (11730491_at) / RFU GIMAP4 (11747438_a_at) / Fold change /veh GIMAP4 (11747438_a_at) / RFU KRT8 (11758183_x_at) / Fold change /veh KRT8 (11758183_x_at) / RFU CNN1 (11734310_a_at) / Fold change /veh CNN1 (11734310_a_at) / RFU VPS37D (11726825_at) / Fold change /veh VPS37D (11726825_at) / RFU C10orf10 (11716522_x_at) / Fold change /veh C10orf10 (11716522_x_at) / RFU KIR2DL2 /// KIR2DL4 /// KIR2DL5A /// KIR2DL5B /// KIR2DS1 /// KIR2DS2 /// KIR2DS3 /// KIR2DS4 /// KIR3DL3 /// KIR3DL3 /// KIR3DS1 (11738374_at) / Fold change /veh KIR2DL2 /// KIR2DL4 /// KIR2DL5A /// KIR2DL5B /// KIR2DS1 /// KIR2DS2 /// KIR2DS3 /// KIR2DS4 /// KIR3DL3 /// KIR3DL3 /// KIR3DS1 (11738374_at) / RFU C1QL1 (11718748_at) / Fold change /veh C1QL1 (11718748_at) / RFU TMPRSS4 (11747572_a_at) / Fold change /veh TMPRSS4 (11747572_a_at) / RFU HAMP (11756126_x_at) / Fold change /veh HAMP (11756126_x_at) / RFU RNFT2 (11725882_a_at) / Fold change /veh RNFT2 (11725882_a_at) / RFU NR4A2 (11747474_a_at) / Fold change /veh NR4A2 (11747474_a_at) / RFU ABCC12 (11746883_a_at) / Fold change /veh ABCC12 (11746883_a_at) / RFU TMEM136 (11760407_x_at) / Fold change /veh TMEM136 (11760407_x_at) / RFU CLDN22 /// WWC2 (11732394_at) / Fold change /veh CLDN22 /// WWC2 (11732394_at) / RFU HLA-DPB1 (11760878_x_at) / Fold change /veh HLA-DPB1 (11760878_x_at) / RFU SPINT1 (11716480_a_at) / Fold change /veh SPINT1 (11716480_a_at) / RFU GAP43 (11754022_s_at) / Fold change /veh GAP43 (11754022_s_at) / RFU A4GNT (11735810_at) / Fold change /veh A4GNT (11735810_at) / RFU PRB3 (11715151_x_at) / Fold change /veh PRB3 (11715151_x_at) / RFU TUBB4B (11761932_at) / Fold change /veh TUBB4B (11761932_at) / RFU CAPN14 (11732068_a_at) / Fold change /veh CAPN14 (11732068_a_at) / RFU TMCC2 (11721928_a_at) / Fold change /veh TMCC2 (11721928_a_at) / RFU IRGQ (11745062_a_at) / Fold change /veh IRGQ (11745062_a_at) / RFU FAM174B (11720279_a_at) / Fold change /veh FAM174B (11720279_a_at) / RFU TMPRSS4 (11748680_a_at) / Fold change /veh TMPRSS4 (11748680_a_at) / RFU FAM212B (11763350_a_at) / Fold change /veh FAM212B (11763350_a_at) / RFU PLEKHG5 (11743358_a_at) / Fold change /veh PLEKHG5 (11743358_a_at) / RFU ZSCAN30 (11745921_a_at) / Fold change /veh ZSCAN30 (11745921_a_at) / RFU CMKLR1 (11741424_a_at) / Fold change /veh CMKLR1 (11741424_a_at) / RFU LOC101060620 /// MAPK8IP1 (11723275_at) / Fold change /veh LOC101060620 /// MAPK8IP1 (11723275_at) / RFU SPTSSB (11747773_x_at) / Fold change /veh SPTSSB (11747773_x_at) / RFU PRSS12 (11739890_at) / Fold change /veh PRSS12 (11739890_at) / RFU BIN1 (11741810_x_at) / Fold change /veh BIN1 (11741810_x_at) / RFU WNT11 (11732464_a_at) / Fold change /veh WNT11 (11732464_a_at) / RFU C10orf10 (11716521_a_at) / Fold change /veh C10orf10 (11716521_a_at) / RFU C5orf56 (11738089_at) / Fold change /veh C5orf56 (11738089_at) / RFU CYB561 (11721691_x_at) / Fold change /veh CYB561 (11721691_x_at) / RFU ANKRD19P (11752326_a_at) / Fold change /veh ANKRD19P (11752326_a_at) / RFU OR2T12 /// OR2T33 /// OR2T8 (11738714_s_at) / Fold change /veh OR2T12 /// OR2T33 /// OR2T8 (11738714_s_at) / RFU VCAN (11748164_a_at) / Fold change /veh VCAN (11748164_a_at) / RFU JSRP1 (11732532_at) / Fold change /veh JSRP1 (11732532_at) / RFU KRTAP10-11 (11738290_x_at) / Fold change /veh KRTAP10-11 (11738290_x_at) / RFU MYO3A (11730013_a_at) / Fold change /veh MYO3A (11730013_a_at) / RFU EBF3 (11725865_a_at) / Fold change /veh EBF3 (11725865_a_at) / RFU CAMK2N1 (11719241_x_at) / Fold change /veh CAMK2N1 (11719241_x_at) / RFU C5orf56 (11738088_a_at) / Fold change /veh C5orf56 (11738088_a_at) / RFU OLFML3 (11715873_a_at) / Fold change /veh OLFML3 (11715873_a_at) / RFU LOC100653217 /// NTM (11731650_a_at) / Fold change /veh LOC100653217 /// NTM (11731650_a_at) / RFU MAPK11 (11762145_a_at) / Fold change /veh MAPK11 (11762145_a_at) / RFU FIZ1 (11724087_x_at) / Fold change /veh FIZ1 (11724087_x_at) / RFU OASL (11726364_x_at) / Fold change /veh OASL (11726364_x_at) / RFU SOX15 (11748057_x_at) / Fold change /veh SOX15 (11748057_x_at) / RFU CD79A (11719716_a_at) / Fold change /veh CD79A (11719716_a_at) / RFU HIST1H1D (11736915_at) / Fold change /veh HIST1H1D (11736915_at) / RFU CASKIN2 (11723855_a_at) / Fold change /veh CASKIN2 (11723855_a_at) / RFU LOC730098 (11760151_x_at) / Fold change /veh LOC730098 (11760151_x_at) / RFU OR4N2 (11742367_at) / Fold change /veh OR4N2 (11742367_at) / RFU PRRT2 (11749266_a_at) / Fold change /veh PRRT2 (11749266_a_at) / RFU SNX32 (11753110_a_at) / Fold change /veh SNX32 (11753110_a_at) / RFU CDHR5 (11726645_a_at) / Fold change /veh CDHR5 (11726645_a_at) / RFU RCAN1 (11760418_a_at) / Fold change /veh RCAN1 (11760418_a_at) / RFU FAM167A (11723789_a_at) / Fold change /veh FAM167A (11723789_a_at) / RFU FAM26E (11764081_at) / Fold change /veh FAM26E (11764081_at) / RFU ISYNA1 (11749810_s_at) / Fold change /veh ISYNA1 (11749810_s_at) / RFU ACY1 (11761880_at) / Fold change /veh ACY1 (11761880_at) / RFU 11764098_at / Fold change /veh 11764098_at / RFU SAMD14 (11745864_x_at) / Fold change /veh SAMD14 (11745864_x_at) / RFU NPB (11741838_a_at) / Fold change /veh NPB (11741838_a_at) / RFU TMPRSS6 (11731388_a_at) / Fold change /veh TMPRSS6 (11731388_a_at) / RFU KRTAP10-2 (11738614_at) / Fold change /veh KRTAP10-2 (11738614_at) / RFU ARHGAP8 /// PRR5-ARHGAP8 (11727945_x_at) / Fold change /veh ARHGAP8 /// PRR5-ARHGAP8 (11727945_x_at) / RFU KRTAP5-7 /// NADSYN1 (11734609_at) / Fold change /veh KRTAP5-7 /// NADSYN1 (11734609_at) / RFU RASL12 (11751679_a_at) / Fold change /veh RASL12 (11751679_a_at) / RFU CDKN2B (11736163_a_at) / Fold change /veh CDKN2B (11736163_a_at) / RFU PRF1 (11729649_at) / Fold change /veh PRF1 (11729649_at) / RFU, ZNF638 /// ZNF638-IT1 / Fold change vs veh, ZNF638 /// ZNF638-IT1 / RFU, PANK3 / Fold change vs veh, PANK3 / RFU, SH3YL1 / Fold change vs veh, SH3YL1 / RFU, ZEB2 / Fold change vs veh, ZEB2 / RFU, NRIP1 / Fold change vs veh, NRIP1 / RFU, PTTG1IP / Fold change vs veh, PTTG1IP / RFU, CAPN2 / Fold change vs veh, CAPN2 / RFU, MED14 / Fold change vs veh, MED14 / RFU, SNORA58 / Fold change vs veh, SNORA58 / RFU, C1orf63 / Fold change vs veh, C1orf63 / RFU, LRRFIP1 / Fold change vs veh, LRRFIP1 / RFU, NDUFAF7 / Fold change vs veh, NDUFAF7 / RFU, SLC12A2 / Fold change vs veh, SLC12A2 / RFU, IBTK / Fold change vs veh, IBTK / RFU, ESF1 / Fold change vs veh, ESF1 / Fold change vs veh, TMEM50B / RFU, TAOK1 / Fold change vs veh, TAOK1 / RFU, ACBD3 / Fold change vs veh, ACBD3 / RFU, TMA16 / Fold change vs veh, TMA16 / RFU, RWDD3 / Fold change vs veh, RWDD3 / RFU, BCAT1 / Fold change vs veh, BCAT1 / RFU, EDEM3 / Fold change vs veh, EDEM3 / RFU, TMEM33 / Fold change vs veh, TMEM33 / RFU, WDR75 / Fold change vs veh, WDR75 / RFU, AHCTF1 / Fold change vs veh, AHCTF1 / RFU, TFRC / Fold change vs veh, TFRC / RFU, ZDHHC17 / Fold change vs veh, ZDHHC17 / RFU, NOM1 / Fold change vs veh, NOM1 / RFU, ARL8B / Fold change vs veh, ARL8B / RFU, ZBTB11 / Fold change vs veh, ZBTB11 / RFU, TAMM41 / Fold change vs veh, TAMM41 / RFU, KIAA1704 /// LOC100996395 / Fold change vs veh, KIAA1704 /// LOC100996395 / RFU, ING1 / Fold change vs veh, ING1 / RFU, TRMT61B / Fold change vs veh, TRMT61B / RFU, FUBP3 / Fold change vs veh, FUBP3 / RFU, TP53 / Fold change vs veh, TP53 / RFU, TNKS2 / Fold change vs veh, TNKS2 / RFU, ZFP14 / Fold change vs veh, ZFP14 / RFU, ACTR2 / Fold change vs veh, ACTR2 / RFU, PPP3R1 / Fold change vs veh, PPP3R1 / RFU, PIK3R1 / Fold change vs veh, PIK3R1 / RFU, HNRNPA1 / Fold change vs veh, HNRNPA1 / RFU, RNF170 / Fold change vs veh, RNF170 / RFU, ZNF28 / Fold change vs veh, ZNF28 / RFU, RNGTT / Fold change vs veh, RNGTT / RFU, OGT / Fold change vs veh, OGT / RFU, BRD1 / Fold change vs veh, BRD1 / RFU, MARS / Fold change vs veh, MARS / RFU, ZNF655 / Fold change vs veh, ZNF655 / RFU, FAHD1 / Fold change vs veh, FAHD1 / RFU, BDP1 / Fold change vs veh, BDP1 / RFU, LRRCC1 / Fold change vs veh, LRRCC1 / RFU, ARID1A / Fold change vs veh, ARID1A / RFU, ZNF146 / Fold change vs veh, ZNF146 / RFU, ZNF330 / Fold change vs veh, ZNF330 / RFU, GPN3 / Fold change vs veh, GPN3 / RFU, C9orf123 / Fold change vs veh, C9orf123 / RFU, N4BP2L2 / Fold change vs veh, N4BP2L2 / RFU, ARFIP1 / Fold change vs veh, ARFIP1 / RFU, FAM179B / Fold change vs veh, FAM179B / RFU, BCL10 / Fold change vs veh, BCL10 / RFU, UHRF1BP1L / Fold change vs veh, UHRF1BP1L / RFU, BET1 / Fold change vs veh, BET1 / RFU, CNOT2 / Fold change vs veh, CNOT2 / RFU, ZNF268 / Fold change vs veh, ZNF268 / Fold change vs veh, ZNF507 / RFU, DGCR2 / Fold change vs veh, DGCR2 / RFU, WDSUB1 / Fold change vs veh, WDSUB1 / Fold change vs veh, HSP90B1 /// MIR3652 / RFU, ADSS / Fold change vs veh, ADSS / RFU, GK / Fold change vs veh, GK / RFU, ZNF148 / Fold change vs veh, ZNF148 / RFU, TAF9 / Fold change vs veh, TAF9 / RFU, SLC1A5 / Fold change vs veh, SLC1A5 / RFU, SLMO2 / Fold change vs veh, SLMO2 / RFU, ABCC4 / Fold change vs veh, ABCC4 / RFU, LOC101060439 /// RAP1B / Fold change vs veh, LOC101060439 /// RAP1B / RFU, RFX7 / Fold change vs veh, RFX7 / RFU, GTPBP10 / Fold change vs veh, GTPBP10 / RFU, CNEP1R1 / Fold change vs veh, CNEP1R1 / RFU, BIVM-ERCC5 /// ERCC5 / Fold change vs veh, BIVM-ERCC5 /// ERCC5 / RFU, ILF3 / Fold change vs veh, ILF3 / RFU 11762660_at / Fold change /veh 11762660_at / RFU VCAN (11757783_s_at) / Fold change /veh VCAN (11757783_s_at) / RFU DDX43 (11728927_at) / Fold change /veh DDX43 (11728927_at) / RFU KRT8 (11758188_x_at) / Fold change /veh KRT8 (11758188_x_at) / RFU NKD1 (11759106_at) / Fold change /veh NKD1 (11759106_at) / RFU SRD5A1 (11742802_a_at) / Fold change /veh SRD5A1 (11742802_a_at) / RFU TPSAB1 /// TPSB2 (11721975_s_at) / Fold change /veh TPSAB1 /// TPSB2 (11721975_s_at) / RFU GSTM3 (11746129_a_at) / Fold change /veh GSTM3 (11746129_a_at) / RFU IL23R (11737362_x_at) / Fold change /veh IL23R (11737362_x_at) / RFU TMEM51 (11727254_a_at) / Fold change /veh TMEM51 (11727254_a_at) / RFU PIWIL2 (11732686_x_at) / Fold change /veh PIWIL2 (11732686_x_at) / RFU ORM1 (11744905_x_at) / Fold change /veh ORM1 (11744905_x_at) / RFU CCDC152 (11743942_at) / Fold change /veh CCDC152 (11743942_at) / RFU ECM1 (11717891_a_at) / Fold change /veh ECM1 (11717891_a_at) / RFU IL23R (11748794_a_at) / Fold change /veh IL23R (11748794_a_at) / RFU TNFAIP8L3 (11732012_x_at) / Fold change /veh TNFAIP8L3 (11732012_x_at) / RFU MBOAT4 (11741988_at) / Fold change /veh MBOAT4 (11741988_at) / RFU 11764193_at / Fold change /veh 11764193_at / RFU TMEM53 (11763286_at) / Fold change /veh TMEM53 (11763286_at) / RFU MAGEB2 (11727129_at) / Fold change /veh MAGEB2 (11727129_at) / RFU TMEM200A (11744735_a_at) / Fold change /veh TMEM200A (11744735_a_at) / RFU CCDC152 (11751479_a_at) / Fold change /veh CCDC152 (11751479_a_at) / RFU FAM211A (11726209_a_at) / Fold change /veh FAM211A (11726209_a_at) / RFU RGS16 (11746705_a_at) / Fold change /veh RGS16 (11746705_a_at) / RFU VCAN (11755009_s_at) / Fold change /veh VCAN (11755009_s_at) / RFU RHOB (11743442_s_at) / Fold change /veh RHOB (11743442_s_at) / RFU RGS16 (11720943_a_at) / Fold change /veh RGS16 (11720943_a_at) / RFU RGS16 (11720944_at) / Fold change /veh RGS16 (11720944_at) / RFU, VPS4B / Fold change vs veh, VPS4B / RFU, CREB1 / Fold change vs veh, CREB1 / RFU, DNAJC13 / Fold change vs veh, DNAJC13 / RFU, GNAQ / Fold change vs veh, GNAQ / RFU, CDK5R1 / Fold change vs veh, CDK5R1 / RFU, ZRANB3 / Fold change vs veh, ZRANB3 / RFU, CUL4A / Fold change vs veh, CUL4A / RFU, CCNY / Fold change vs veh, CCNY / RFU, UFL1 / Fold change vs veh, UFL1 / RFU, COG3 / Fold change vs veh, COG3 / RFU, DIAPH2 / Fold change vs veh, DIAPH2 / RFU, SKA2 / Fold change vs veh, SKA2 / RFU, AFF3 / Fold change vs veh, AFF3 / RFU, LMF1 / Fold change vs veh, LMF1 / RFU, IPO11 / Fold change vs veh, IPO11 / RFU, DFFB / Fold change vs veh, DFFB / RFU, FOXP1 / Fold change vs veh, FOXP1 / RFU, CARD8 / Fold change vs veh, CARD8 / RFU, STRN3 / Fold change vs veh, STRN3 / RFU, ADK / Fold change vs veh, ADK / RFU, RASSF2 / Fold change vs veh, RASSF2 / RFU, WIPF1 / Fold change vs veh, WIPF1 / RFU, LARP1B / Fold change vs veh, LARP1B / RFU, RASA1 / Fold change vs veh, RASA1 / RFU, RB1 / Fold change vs veh, RB1 / RFU, PPFIA1 / Fold change vs veh, PPFIA1 / RFU, MAT2A / Fold change vs veh, MAT2A / RFU, CCT5 / Fold change vs veh, CCT5 / RFU, WDR92 / Fold change vs veh, WDR92 / RFU, CUX1 / Fold change vs veh, CUX1 / RFU, TTC7A / Fold change vs veh, TTC7A / RFU, TMEM135 / Fold change vs veh, TMEM135 / RFU, DEPTOR / Fold change vs veh, DEPTOR / RFU, CPM / Fold change vs veh, CPM / RFU, DNAJB6 / Fold change vs veh, DNAJB6 / RFU, CACNA2D3 / Fold change vs veh, CACNA2D3 / RFU, DTX4 / Fold change vs veh, DTX4 / RFU, TFCP2 / Fold change vs veh, TFCP2 / RFU, GMCL1 /// GMCL1P1 / Fold change vs veh, GMCL1 /// GMCL1P1 / RFU, AEBP2 / Fold change vs veh, AEBP2 / RFU, SNHG1 /// SNORD22 /// SNORD25 /// SNORD26 /// SNORD27 /// SNORD28 /// SNORD29 /// SNORD31 / Fold change vs veh, SNHG1 /// SNORD22 /// SNORD25 /// SNORD26 /// SNORD27 /// SNORD28 /// SNORD29 /// SNORD31 / Fold change (Aza/veh), C12orf56 (ProbeSet 11735607_a_at) / Fold change (ACY-1035/veh), C12orf56 (ProbeSet 11735607_a_at) / Fold change (Aza/veh), FGFR1OP (ProbeSet 11751329_s_at) / Fold change (ACY-1035/veh), FGFR1OP (ProbeSet 11751329_s_at) / Fold change (Aza/veh), VPS36 (ProbeSet 11739960_a_at) / Fold change (ACY-1035/veh), VPS36 (ProbeSet 11739960_a_at) / RFU SYPL1 (11715823_x_at) / Fold change /veh SYPL1 (11715823_x_at) / RFU IGFBP7 (11715501_s_at) / Fold change /veh IGFBP7 (11715501_s_at) / RFU REEP3 (11722064_at) / Fold change /veh REEP3 (11722064_at) / RFU IGLL1 (11728026_x_at) / Fold change /veh IGLL1 (11728026_x_at): dose or concentration left out as unconfirmed
Settings: ProbeSet 11721559_s_at; LIST B

In the case of `Nc1ccc(-c2cccs2)cc1NC(=O)c1ccc2c(c1)cc(C1CC1)n2CCN1CCOCC1` [ACY-1035], the “RFU, ZNF638 /// ZNF638-IT1” value is reported as 322.16 RFU.
